Values quoted from earlier work, collected in US20150223465A1, “COMPOSITION CONTAINING 3-CYCLOPROPYL-1-ENYL-PROPANOIC ACID SALTS AND A CARRIER” (Yissum Research Development Company of the Hebrew …, priority 2012, published 2015).

What was measured:
[1] = tested on: cut mini carnation flowers; details: cited from earlier work; for inhibition of the action of ethylene: applied as aqueous solutions to cut mini carnation flowers; for activity as plant ethylene antagonist: in a vapor phase
cut flowers = details: cited from earlier work

SMILES	inhibition of the action of ethylene [1]	activity as plant ethylene antagonist [1]	effect on fresh weight of cut flowers during vase life (cut flowers; about 1.5 mM NaHCO3 combined with CuSO4)	effect on hydraulic stem resistance or transpiration rate (cut flowers; in vase water of cut flowers)
O=C(O)CCC1=CC1 [3-cycloprop-1-en-1-ylpropanoic acid]	did not inhibit	active	–	–
O=C([O-])O.[Na+] [NaHCO3, sodium bicarbonate]	–	–	positively affected	no effect
O=C(O)C1C=C1 [cycloprop-2-ene-1-carboxylic acid]	did not inhibit	active	–	–
CC(C)N.O=C(O)CCC1=CC1 [propan-2-aminium 3-cycloprop-1-en-1-ylpropanoate]	some ethylene sensitivity but the test results were variable	–	–	–
CC1=CC1C(=O)O (stereo not drawn) [2-methylcycloprop-2-ene-1-carboxylic acid]	did not inhibit	active	–	–
